Test systems include 786-0; HCC 2998; HCT-15; Hs-578T; IGROV-1; M14; MCF7; MOLT-4; NCI-H226; OVCAR-5; PC-3; SK-MEL-2; SK-OV-3; SNB-19; SNB-75; T47D; UACC-257; UO-31.
Holding throughout (assay): NCI anticancer screen, dose series, 48 h

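Briefly, cells in 96-well plates were exposed to five compound concentrations for 48 h, and endpoints were estimated by linear interpolation. At the GI50, growth is halved.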 Calls of active or inactive are those of the source. Cut-off read from the data, not from the text of the source: active = GI50 up to about 1.1 µM and inactive = higher. Bounds are passed on as bounds.

Consider `CC(=O)c1c(SCCN2CCOCC2)n(-c2ccccc2)c(=S)n(-c2ccccc2)c1=O`, for which the GI50 is 11.5 µM (inactive) in the assay on 786-0; 14.3 µM (inactive) in the assay with HCC 2998; 19.5 µM in the assay with HCT-15; 39.7 µM (inactive) with Hs-578T; 16.9 µM (inactive) in the assay with IGROV-1; 16.1 µM (inactive) in the assay with M14. For the same compound, the GI50 in the assay with MCF7 is 2.21 µM (inactive); in the assay with MOLT-4, 16 µM (inactive); with NCI-H226, > 53.1 µM (inactive); in the assay on OVCAR-5 it was > 100 µM (inactive); in the assay with PC-3 it was 17.3 µM (inactive); in the assay with SK-MEL-2 it was 20.2 µM (inactive). Also, the GI50 with SK-OV-3 was > 48.6 µM (inactive); with SNB-19, > 40.9 µM (inactive); in the assay on SNB-75 it was 22.3 µM (inactive); in the assay on T47D it was 17.6 µM (inactive); in the assay with UACC-257, 15.4 µM (inactive); with UO-31 it was 14.1 µM (inactive).
For `COC(=O)CCCCC/C(=C\C(=O)C(Cl)(Cl)Cl)OC`, the GI50 is 24.9 µM (inactive) in the assay with 786-0; 15.9 µM (inactive) in the assay with HCC 2998; 24.2 µM in the assay on HCT-15; 26.4 µM (inactive) in the assay on Hs-578T; 12.7 µM (inactive) with IGROV-1; 31.1 µM (inactive) in the assay with M14. Further, the GI50 with MCF7 was 23.3 µM (inactive); in the assay on MOLT-4, 16.7 µM (inactive); with OVCAR-5, > 100 µM (inactive); in the assay on PC-3, 27.8 µM (inactive); in the assay with SK-MEL-2, 22.2 µM (inactive); with SK-OV-3 it was 61.4 µM (inactive). In addition, the GI50 was 48.2 µM (inactive) with SNB-19; 21.4 µM (inactive) in the assay with SNB-75; 28.5 µM (inactive) with T47D; 21.8 µM (inactive) in the assay on UACC-257; 84.5 µM (inactive) with UO-31.
As to `CC(C)c1ccc(/C=C2/C=C(c3ccc4ccccc4c3)OC2=O)cc1`, the GI50 in the assay with 786-0 was > 100 µM (inactive); with HCC 2998, > 100 µM (inactive); in the assay with HCT-15, 72.3 µM; in the assay on Hs-578T, > 75.2 µM (inactive); in the assay on IGROV-1, > 85.9 µM (inactive); in the assay on M14 it was 41 µM (inactive). Besides, the GI50 in the assay on MCF7 was 88.5 µM (inactive); with MOLT-4 it was 21.2 µM (inactive); in the assay on NCI-H226, 73.5 µM (inactive); with OVCAR-5, > 100 µM (inactive); in the assay on PC-3, 49 µM (inactive); in the assay with SK-MEL-2 it was 19.5 µM (inactive). Further, the GI50 with SK-OV-3 was > 100 µM (inactive); in the assay on SNB-19, > 100 µM (inactive); with SNB-75, > 74.1 µM (inactive); with T47D, 43 µM (inactive); with UACC-257 it was 21 µM (inactive); with UO-31, > 76.2 µM (inactive).
As for `C/C(=N/NC(=S)N1CCCCCC1)c1cccc(/C(C)=N\NC(=S)N2CCCCCC2)n1`, the GI50 in the assay with 786-0 was 1.3 µM (inactive); in the assay on HCC 2998, 2.27 µM (inactive); in the assay on HCT-15, 2.09 µM; in the assay on Hs-578T, 5.2 µM (inactive); in the assay with IGROV-1, 1.49 µM (inactive); in the assay with M14, 1.71 µM (inactive). In addition, the GI50 was 1.57 µM (inactive) with MCF7; 2.43 µM (inactive) in the assay on MOLT-4; 1.75 µM (inactive) in the assay on NCI-H226; 2.24 µM (inactive) in the assay on OVCAR-5; 1.64 µM (inactive) with PC-3; 1.67 µM (inactive) with SK-MEL-2. Also, the GI50 with SK-OV-3 was 2.43 µM (inactive); in the assay with SNB-19, 3.27 µM (inactive); with SNB-75 it was 1.95 µM (inactive); with T47D, 2.31 µM (inactive); with UACC-257, 1.58 µM (inactive); with UO-31 it was 1.37 µM (inactive).
Regarding `Cc1cc(=O)[nH]c(-n2[nH]c3c(c2=O)CCCC3)n1`, the GI50 in the assay on 786-0 was 57.7 µM (inactive); in the assay with HCT-15, 31.3 µM; in the assay with Hs-578T, 92.9 µM (inactive); with IGROV-1, 97.3 µM (inactive); in the assay with M14, 73.1 µM (inactive); in the assay on MCF7 it was 63 µM (inactive). Also, the GI50 was 60.8 µM (inactive) with MOLT-4; > 100 µM (inactive) with NCI-H226; 69 µM (inactive) with OVCAR-5; 68.1 µM (inactive) in the assay with PC-3; 52.1 µM (inactive) in the assay with SK-MEL-2; 93.1 µM (inactive) with SK-OV-3. In addition, the GI50 with SNB-19 is > 100 µM (inactive); in the assay on SNB-75, < 0.01 µM (active); in the assay with T47D, > 100 µM (inactive); in the assay with UACC-257 it was 66.5 µM (inactive); in the assay on UO-31, 59.6 µM (inactive).
Take `CCCCCCCCCCCCNC(C)=O`: the GI50 with 786-0 is 16.8 µM (inactive); with HCC 2998, 17.5 µM (inactive); with HCT-15, 16.9 µM; in the assay on Hs-578T it was 14.4 µM (inactive); with M14 it was 17 µM (inactive); in the assay on MCF7, 17.1 µM (inactive). The GI50 was 18.7 µM (inactive) with NCI-H226; 14.5 µM (inactive) in the assay on PC-3; 14.8 µM (inactive) in the assay on SK-MEL-2; 15.7 µM (inactive) in the assay on SK-OV-3; 16.3 µM (inactive) in the assay with SNB-19; 23.6 µM (inactive) in the assay with SNB-75. For the same compound, the GI50 in the assay on T47D was 18.9 µM (inactive); in the assay with UACC-257, 23.2 µM (inactive); in the assay with UO-31, 20 µM (inactive).
With `CSc1nc(SC)c2c(CO)c(Br)n(Cc3ccccc3)c2n1`, the GI50 was 18.7 µM (inactive) in the assay on 786-0; 43.3 µM (inactive) with HCC 2998; 70 µM in the assay with HCT-15; 19.1 µM (inactive) with Hs-578T; 16 µM (inactive) in the assay on IGROV-1; 83.2 µM (inactive) in the assay on M14. Besides, the GI50 in the assay with MCF7 is 24.6 µM (inactive); with MOLT-4 it was > 100 µM (inactive); in the assay on NCI-H226, 11.3 µM (inactive); with OVCAR-5 it was 56.9 µM (inactive); in the assay with PC-3, 43.1 µM (inactive); with SK-MEL-2 it was 25.7 µM (inactive). For the same compound, the GI50 in the assay on SK-OV-3 was 20.2 µM (inactive); with SNB-19 it was 29 µM (inactive); with SNB-75, 13.6 µM (inactive); in the assay on T47D it was 14.9 µM (inactive); with UO-31 it was 12.7 µM (inactive).
Regarding `CC(C)(CO)CNc1nc(N)nc(Cl)c1C=O`, the GI50 in the assay with 786-0 was 79.3 µM (inactive); in the assay with HCC 2998 it was 4.51 µM (inactive); in the assay on HCT-15 it was 15.3 µM; in the assay with Hs-578T, 22.9 µM (inactive); in the assay on IGROV-1 it was 20.1 µM (inactive); in the assay with MCF7, 50.4 µM (inactive). For the same compound, the GI50 was 19.8 µM (inactive) with MOLT-4; 50.8 µM (inactive) with NCI-H226; > 100 µM (inactive) in the assay with OVCAR-5; 16.8 µM (inactive) in the assay on PC-3; 16.8 µM (inactive) in the assay with SK-MEL-2; 35.6 µM (inactive) with SNB-75. For the same compound, the GI50 was 42.9 µM (inactive) in the assay with T47D, 35.4 µM (inactive) in the assay on UACC-257 and 62.1 µM (inactive) with UO-31.
Regarding `[O-]c1c[n+](CCCC[n+]2cc([O-])on2)no1`, the GI50 with 786-0 is > 100 µM (inactive); in the assay on HCC 2998 it was > 100 µM (inactive); in the assay with HCT-15, more than 100 µM; in the assay on Hs-578T, > 100 µM (inactive); with IGROV-1, > 100 µM (inactive); with M14 it was > 100 µM (inactive). The GI50 in the assay with MCF7 was > 100 µM (inactive); in the assay on MOLT-4, 22.8 µM (inactive); in the assay on OVCAR-5, > 100 µM (inactive); with PC-3 it was > 100 µM (inactive); with SK-MEL-2 it was > 100 µM (inactive); with SK-OV-3, > 100 µM (inactive). In addition, the GI50 with SNB-19, in the assay with SNB-75, with T47D, with UACC-257 and in the assay on UO-31 was > 100 µM (inactive) throughout.
As for `COc1ccc(Cn2c(=O)c(OC)c(C)c3cc4ccccc4cc32)cc1`, the GI50 is 33 µM (inactive) in the assay on 786-0; 29 µM (inactive) with HCC 2998; 27 µM with HCT-15; 40.9 µM (inactive) in the assay with Hs-578T; 21.4 µM (inactive) in the assay with IGROV-1; 41.2 µM (inactive) in the assay with M14. Moreover, the GI50 in the assay on MCF7 is 33.7 µM (inactive); in the assay on MOLT-4, 11.8 µM (inactive); in the assay on NCI-H226, 45.7 µM (inactive); with OVCAR-5 it was 54.5 µM (inactive); in the assay with PC-3, 16.1 µM (inactive); in the assay with SK-MEL-2, 17.2 µM (inactive). Also, the GI50 is 42.3 µM (inactive) with SK-OV-3; 48.1 µM (inactive) with SNB-19; 32.1 µM (inactive) in the assay with SNB-75; 33.6 µM (inactive) in the assay with T47D; 2.99 µM (inactive) with UACC-257; 39.2 µM (inactive) in the assay with UO-31.
As to `Cc1c2c(n(CC(c3ccccc3)c3ccccc3)c1C)NN=C(C#N)S2(=O)=O`, the GI50 was > 100 µM (inactive) in the assay on 786-0; > 100 µM (inactive) in the assay with HCC 2998; more than 100 µM in the assay with HCT-15; 43.1 µM (inactive) in the assay on Hs-578T; > 100 µM (inactive) in the assay on IGROV-1; > 100 µM (inactive) with M14. For the same compound, the GI50 with MCF7 is > 100 µM (inactive); with MOLT-4 it was 37.7 µM (inactive); with NCI-H226 it was > 100 µM (inactive); in the assay on OVCAR-5, > 100 µM (inactive); with PC-3, > 100 µM (inactive); with SK-MEL-2 it was > 100 µM (inactive). The GI50 with SK-OV-3 was > 100 µM (inactive); with SNB-19, > 100 µM (inactive); in the assay on SNB-75, 98.4 µM (inactive); in the assay with T47D, > 100 µM (inactive); with UACC-257 it was > 100 µM (inactive); with UO-31 it was > 100 µM (inactive).
Take `Cc1cc(C)n(C(=O)CSc2nc3ccc(I)cc3c(=O)n2Cc2ccccc2)n1`: the GI50 was 28.3 µM (inactive) in the assay on 786-0; 68.4 µM (inactive) in the assay on HCC 2998; 30.4 µM in the assay on HCT-15; 20 µM (inactive) in the assay on Hs-578T; 20 µM (inactive) in the assay on IGROV-1; 97.1 µM (inactive) in the assay with M14. Further, the GI50 with MCF7 is 96.6 µM (inactive); with MOLT-4, > 100 µM (inactive); with NCI-H226, 62.7 µM (inactive); with OVCAR-5, > 100 µM (inactive); with PC-3 it was 22.1 µM (inactive); in the assay on SK-MEL-2, 47.4 µM (inactive). The GI50 is 58.9 µM (inactive) in the assay with SK-OV-3; 43.1 µM (inactive) in the assay on SNB-19; 25.3 µM (inactive) in the assay with SNB-75; 23.2 µM (inactive) in the assay with T47D; 33.9 µM (inactive) with UACC-257.

The values are drawn from ChEMBL document CHEMBL1201862, “PubChem BioAssay data set” (2004).
